Laboratory results as given in patent US7138361B2, “Herbicidal heterocycles” (E. I. du Pont de Nemours and Company, priority 2000, dated 2006).

Legend:
Assay type in all cases: in vivo
[1] = tested on: lambsquarters (Chenopodium album); test: Test B postemergence
How it was run: (§1)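 Greenhouse test: chemicals are formulated in a surfactant-containing non-phytotoxic solvent and applied either preemergence to planted seeds or postemergence to plants 2 to 18 cm tall. Response is rated visually versus controls after 13 to 15 days, 0 meaning no effect and 100 complete control.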

[2] = tested on: blackgrass (Alopecurus myosuroides); test: Test B postemergence
How it was run: as §1

[3] = tested on: pigweed (Amaranthus retroflexus); test: Test B postemergence
How it was run: as §1

[4] = tested on: cocklebur (Xanthium strumarium); test: Test B postemergence
How it was run: as §1

[5] = tested on: Surinam grass (Brachiaria decumbens); test: Test B postemergence
How it was run: as §1

[6] = tested on: corn (Zea mays); test: Test B postemergence
How it was run: as §1

[7] = tested on: crabgrass (Digitaria sanguinalis); test: Test B postemergence
How it was run: as §1

[8] = tested on: wheat (Triticum aestivum); test: Test B postemergence
How it was run: as §1

[9] = tested on: wild oat (Avena fatua); test: Test B postemergence
How it was run: as §1

[10] = tested on: morning glory (Ipomoea hederacea); test: Test B postemergence
How it was run: as §1

[11] = tested on: velvetleaf (Abutilon theophrasti); test: Test B postemergence
How it was run: as §1

[12] = tested on: giant foxtail (Setaria faberii); test: Test B postemergence
How it was run: as §1

[13] = tested on: barnyardgrass (Echinochloa crus-galli); test: Test B postemergence
How it was run: as §1

[14] = tested on: Sunflower; test: Test C preemergence; details: visual evaluation after 12 to 14 days
[15] = tested on: Sunflower; test: Test C preemergence; details: scale 0 to 100, 0 no effect, 100 complete control
[16] = tested on: soybean (Glycine max); test: Test C preemergence; details: for Plant response rating (0 to 100), Soybean: visual evaluation after 12 to 14 days
How it was run: (§2)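 Test chemicals, formulated in a non-phytotoxic solvent mixture with surfactant, were applied preemergence to planted seeds or postemergence to plants 2 to 18 cm tall (1- to 4-leaf stage). After 12 to 14 days in a greenhouse, injury was visually rated against untreated controls on a 0–100 scale.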

[17] = tested on: cocklebur (Xanthium strumarium); test: Test C preemergence; details: for Plant response rating (0 to 100), Cocklebur: visual evaluation after 12 to 14 days
How it was run: as §2

[18] = tested on: goosegrass (Eleusine indica); test: Test C preemergence; details: for Plant response rating (0 to 100), Goosegrass: visual evaluation after 12 to 14 days
How it was run: as §2

[19] = tested on: kochia (Kochia scoparia); test: Test C preemergence; details: for Plant response rating (0 to 100), Kochia: visual evaluation after 12 to 14 days
How it was run: as §2

[20] = tested on: crabgrass (Digitaria sanguinalis); test: Test C preemergence; details: for Plant response rating (0 to 100), Crabgrass: visual evaluation after 12 to 14 days
How it was run: as §2

[21] = tested on: bermudagrass (Cynodon dactylon); test: Test C preemergence; details: for Plant response rating (0 to 100 where 0 is no effect and 100 is complete control), Bermudagrass: visual evaluation after 12 to 14 days
How it was run: as §2

[22] = tested on: velvetleaf (Abutilon theophrasti); test: Test C preemergence; details: for Plant response rating (0 to 100), Velvetleaf: visual evaluation after 12 to 14 days
How it was run: as §2

[23] = tested on: Sunflower; test: Test C preemergence
[24] = Rate 125 g/ha, scale 0 (no effect) to 100 (complete control), 13 to 15 days
[25] = Rate 500 g/ha, scale 0 to 100, 0 is no effect, 100 is complete control, 13 to 15 days
[26] = Preemergence, Rate 500 g/ha, scale 0 to 100
[27] = Rate 62 g/ha, scale 0 to 100, 0 no effect, 100 complete control
[28] = preemergence, Rate 125 g/ha, scale 0 to 100, 0 no effect, 100 complete control
[29] = Rate 125 g/ha, scale 0 to 100, 0 no effect, 100 complete control
[30] = Rate 500 g/ha, scale 0 (no effect) to 100 (complete control), 13 to 15 days
[31] = preemergence, Rate 62 g/ha, scale 0 to 100
[32] = preemergence, Rate 250 g/ha, scale 0 to 100, 0 no effect, 100 complete control

## CC(C)(C)c1ccn(C2CCN(c3cccc(C(F)(F)F)c3)C2=S)n1 (stereo not drawn) [Compound 22]
[1]; [24]
  Plant response rating, Lambsquarters: 90
[1]; [25]
  Plant response rating, Lambsquarters: 90
[2]; [24]
  Plant response rating, Blackgrass: 0
[2]; [25]
  Plant response rating, Blackgrass: 0
[3]; [24]
  Plant response rating, Pigweed: 80
[3]; [25]
  Plant response rating, Pigweed: 90
[4]; [24]
  Plant response rating, Cocklebur: 20
[4]; [25]
  Plant response rating, Cocklebur: 20
[5]; [25]
  Plant response rating, Surinam grass: 20
[6]; [24]
  Plant response rating, Corn: 0
[6]; [25]
  Plant response rating, Corn: 0
[7]; [24]
  Plant response rating, Crabgrass: 40
[7]; [25]
  Plant response rating, Crabgrass: 40
[8]; [24]
  Plant response rating, Wheat: 0
[8]; [25]
  Plant response rating, Wheat: 0
[9]; [24]
  Plant response rating, Wild Oat: 0
[9]; [25]
  Plant response rating, Wild Oat: 0
[10]; [24]
  Plant response rating, Morningglory: 30
[10]; [25]
  Plant response rating, Morningglory: 30
[11]; [24]
  Plant response rating, Velvetleaf: 20
[11]; [25]
  Plant response rating, Velvetleaf: 30
[12]; [24]
  Plant response rating, Foxtail, Giant: 0
[12]; [25]
  Plant response rating, Foxtail, Giant: 0
[13]; [24]
  Plant response rating, Barnyardgrass: 0
[13]; [25]
  Plant response rating, Barnyardgrass: 80
[14]; Rate 250 g/ha
  Plant response rating (0 to 100), Sunflower: 0
[15]; Rate 125 g/ha
  Plant response rating, Sunflower: 0
[16]; [26]
  Plant response rating, Soybean: 40
[16]; [27]
  Plant response rating, Soybean: 30
[16]; preemergence, Rate 250 g/ha
  Plant response rating (0 to 100), Soybean: 40
[16]; [28]
  Plant response rating, Soybean: 40
[17]; [26]
  Plant response rating, Cocklebur: 0
[17]; [27]
  Plant response rating, Cocklebur: 0
[17]; preemergence, Rate 250 g/ha
  Plant response rating (0 to 100), Cocklebur: 0
[17]; [28]
  Plant response rating, Cocklebur: 0
[18]; [26]
  Plant response rating, Goosegrass: 100
[18]; [27]
  Plant response rating, Goosegrass: 90
[18]; preemergence, Rate 250 g/ha
  Plant response rating (0 to 100), Goosegrass: 100
[18]; [28]
  Plant response rating, Goosegrass: 90
[19]; [26]
  Plant response rating, Kochia: 100
[19]; [27]
  Plant response rating, Kochia: 100
[19]; preemergence, Rate 250 g/ha
  Plant response rating (0 to 100), Kochia: 100
[19]; [28]
  Plant response rating, Kochia: 100
[20]; [26]
  Plant response rating, Crabgrass: 100
[20]; [27]
  Plant response rating, Crabgrass: 50
[20]; preemergence, Rate 250 g/ha
  Plant response rating (0 to 100), Crabgrass: 100
[20]; [28]
  Plant response rating, Crabgrass: 100
[21]; [26]
  Plant response rating, Bermudagrass: 100
[21]; [27]
  Plant response rating, Bermudagrass: 30
[21]; preemergence, Rate 250 g/ha
  Plant response rating (0 to 100 where 0 is no effect and 100 is complete control), Bermudagrass: 100
[21]; [28]
  Plant response rating, Bermudagrass: 100
[22]; [26]
  Plant response rating, Velvetleaf: 0
[22]; [27]
  Plant response rating, Velvetleaf: 0
[22]; preemergence, Rate 250 g/ha
  Plant response rating (0 to 100), Velvetleaf: 0
[22]; [28]
  Plant response rating, Velvetleaf: 0
[23]; [27]
  Plant response rating, Sunflower: 0
[23]; Rate 500 g/ha, scale 0 to 100
  Plant response rating, Sunflower: 0

## COc1cc(N2CCC(n3ccc(C(C)(C)C)n3)C2=O)ccc1Br (stereo not drawn) [Compound 141]
[1]; [29]
  Plant response rating, Lambsquarters: 90
[1]; [30]
  Plant response rating, Lambsquarters: 100
[2]; [29]
  Plant response rating, Blackgrass: 0
[2]; [30]
  Plant response rating, Blackgrass: 40
[3]; [29]
  Plant response rating, Pigweed: 80
[3]; [30]
  Plant response rating, Pigweed: 100
[4]; [29]
  Plant response rating, Cocklebur: 40
[4]; [30]
  Plant response rating, Cocklebur: 100
[5]; [29]
  Plant response rating, Surinam grass: 0
[5]; [30]
  Plant response rating, Surinam grass: 0
[6]; [29]
  Plant response rating, Corn: 0
[6]; [30]
  Plant response rating, Corn: 0
[7]; [29]
  Plant response rating, Crabgrass: 20
[7]; [30]
  Plant response rating, Crabgrass: 40
[8]; [29]
  Plant response rating, Wheat: 0
[8]; [30]
  Plant response rating, Wheat: 0
[9]; [29]
  Plant response rating, Wild Oat: 0
[9]; [30]
  Plant response rating, Wild Oat: 0
[10]; [29]
  Plant response rating, Morningglory: 0
[10]; [30]
  Plant response rating, Morningglory: 70
[11]; [29]
  Plant response rating, Velvetleaf: 50
[11]; [30]
  Plant response rating, Velvetleaf: 70
[12]; [29]
  Plant response rating, Foxtail, Giant: 30
[12]; [30]
  Plant response rating, Foxtail, Giant: 50
[13]; [29]
  Plant response rating, Barnyardgrass: 0
[13]; [30]
  Plant response rating, Barnyardgrass: 80
[14]; Rate 500 g/ha
  Plant response rating (0 to 100), Sunflower: 100
[15]; Rate 250 g/ha
  Plant response rating, Sunflower: 40
[16]; [29]
  Plant response rating, Soybean: 100
[16]; [31]
  Plant response rating, Soybean: 70
[16]; preemergence, Rate 500 g/ha
  Plant response rating (0 to 100), Soybean: 100
[16]; [32]
  Plant response rating, Soybean: 100
[17]; [29]
  Plant response rating, Cocklebur: 60
[17]; [31]
  Plant response rating, Cocklebur: 0
[17]; preemergence, Rate 500 g/ha
  Plant response rating (0 to 100), Cocklebur: 100
[17]; [32]
  Plant response rating, Cocklebur: 70
[18]; [29]
  Plant response rating, Goosegrass: 100
[18]; [31]
  Plant response rating, Goosegrass: 100
[18]; preemergence, Rate 500 g/ha
  Plant response rating (0 to 100), Goosegrass: 100
[18]; [32]
  Plant response rating, Goosegrass: 100
[19]; [29]
  Plant response rating, Kochia: 100
[19]; [31]
  Plant response rating, Kochia: 100
[19]; preemergence, Rate 500 g/ha
  Plant response rating (0 to 100), Kochia: 100
[19]; [32]
  Plant response rating, Kochia: 100
[20]; [29]
  Plant response rating, Crabgrass: 100
[20]; [31]
  Plant response rating, Crabgrass: 100
[20]; preemergence, Rate 500 g/ha
  Plant response rating (0 to 100), Crabgrass: 100
[20]; [32]
  Plant response rating, Crabgrass: 100
[21]; [29]
  Plant response rating, Bermudagrass: 100
[21]; [31]
  Plant response rating, Bermudagrass: 100
[21]; preemergence, Rate 500 g/ha
  Plant response rating (0 to 100 where 0 is no effect and 100 is complete control), Bermudagrass: 100
[21]; [32]
  Plant response rating, Bermudagrass: 100
[22]; [29]
  Plant response rating, Velvetleaf: 70
[22]; [31]
  Plant response rating, Velvetleaf: 70
[22]; preemergence, Rate 500 g/ha
  Plant response rating (0 to 100), Velvetleaf: 100
[22]; [32]
  Plant response rating, Velvetleaf: 70
[23]; [29]
  Plant response rating, Sunflower: 40
